Laboratory results from patent publication US20260001871A1, “TRIAZOLE DERIVATIVES AS MODULATORS OF MAS-RELATED G-PROTEIN RECEPTOR D” (ESCIENT PHARMACEUTICALS, INC., priority 2022, published 2026).

Target: human MRGPRD (Homo sapiens, UniProt Q8TDS7)
Assay: MRGPRD antagonist activity, IP-One HTRF assay in CHO cells stably expressing human MRGPRD (versus 100 μM β-Alanine agonist)
Type: cell-based
Summary of the method: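 CHO cells stably expressing human MRGPRD, plated overnight at 37 °C, were treated with antagonist plus agonist in Tris-HCl/NaCl/LiCl buffer pH 8, incubated 1 h at 37 °C then 1 h at room temperature. IP-1 accumulation read by HTRF; IC50 and percent antagonism of maximum efficacy averaged, SEM reported.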

human MRGPRD, sequence (Q8TDS7 whole entry): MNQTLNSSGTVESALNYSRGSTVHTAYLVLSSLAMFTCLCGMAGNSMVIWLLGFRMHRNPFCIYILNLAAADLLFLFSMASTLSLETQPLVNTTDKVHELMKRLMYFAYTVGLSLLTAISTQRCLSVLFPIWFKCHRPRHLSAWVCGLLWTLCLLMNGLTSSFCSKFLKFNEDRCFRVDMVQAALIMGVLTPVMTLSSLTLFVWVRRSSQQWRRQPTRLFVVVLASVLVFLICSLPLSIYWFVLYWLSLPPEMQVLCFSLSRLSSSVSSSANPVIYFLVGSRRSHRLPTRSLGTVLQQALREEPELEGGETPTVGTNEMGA

| Compound | IC50 [nM] |
| --- | --- |
| O=C(Nc1ccncc1)c1nnn(-c2ccc(-c3ccccc3OC(F)(F)F)cc2)c1C1CC1 [Compound 7-186] | 1000 to 3000 |
| O=C(Nc1ccncc1)c1nnn(-c2ccc(-c3cncs3)cc2)c1C1CC1 [Compound 7-187] | 1000 to 3000 |
| Cn1ncc(C#N)c1-c1ccc(-n2nnc(C(=O)Nc3ccncc3)c2C2CC2)cc1 [Compound 7-188] | 1000 to 3000 |
| O=C(Nc1ccncc1)c1nnn(-c2ccc(-c3cccc(F)c3)cc2)c1C1CC1 [Compound 7-190] | 1000 to 3000 |
| Cn1ncc(CO)c1-c1ccc(-n2nnc(C(=O)Nc3ccncc3)c2C2CC2)cc1 [Compound 7-192] | 1000 to 3000 |
| Cc1cnn(C2CCCCO2)c1-c1ccc(-n2nnc(C(=O)Nc3ccncc3)c2C2CC2)cc1 (stereo not drawn) [Compound 7-193] | 1000 to 3000 |
| COc1ncc(-c2ccc(-n3nnc(C(=O)Nc4ccncc4)c3C3CC3)cc2)cn1 [Compound 7-194] | 1000 to 3000 |
| O=C(Nc1ccncc1)c1nnn(-c2ccc(-c3ccc(OC(F)(F)F)cc3)cc2)c1C1CC1 [Compound 7-195] | 1000 to 3000 |
| O=C(Nc1ccncc1)c1nnn(-c2ccc(-c3ccc4[nH]ccc4c3)cc2)c1C1CC1 [Compound 7-196] | 1000 to 3000 |
| NS(=O)(=O)c1ccccc1-c1ccc(-n2nnc(C(=O)Nc3ccncc3)c2C2CC2)cc1 [Compound 7-197] | 1000 to 3000 |
| CCc1ccc(-c2ccc(-n3nnc(C(=O)Nc4ccncc4)c3C3CC3)cc2)cc1 [Compound 7-199] | 1000 to 3000 |
| O=C(Nc1ccncc1)c1nnn(-c2ccc(-c3ccccn3)cc2)c1C1CC1 [Compound 7-200] | 1000 to 3000 |
| CC(C)(C)c1cccc(-c2ccc(-n3nnc(C(=O)Nc4ccncc4)c3C3CC3)cc2)c1 [Compound 7-201] | 1000 to 3000 |
| O=C(Nc1ccncc1)c1nnn(-c2ccc(-c3ccc(C4CCCC4)cc3)cc2)c1C1CC1 [Compound 7-202] | 1000 to 3000 |
| O=C(Nc1ccncc1)c1nnn(-c2ccc(-c3cncnc3)cc2)c1C1CC1 [Compound 7-203] | 1000 to 3000 |
| CN(C)C(=O)c1cccc(-c2ccc(-n3nnc(C(=O)Nc4ccncc4)c3C3CC3)cc2)c1 [Compound 7-204] | 1000 to 3000 |

| Compound | IC50 [nM] |
| --- | --- |
| Cc1cc(-c2ccc(-n3nnc(C(=O)Nc4ccncc4)c3C3CC3)cc2)n[nH]1 [Compound 7-206] | 1000 to 3000 |
| CN(C)C(=O)c1ccc(-c2ccc(-n3nnc(C(=O)Nc4ccncc4)c3C3CC3)cc2)cc1 [Compound 7-207] | 1000 to 3000 |
| CCc1ccccc1-c1ccc(-n2nnc(C(=O)Nc3ccncc3)c2C2CC2)cc1 [Compound 7-208] | 1000 to 3000 |
| CN(C)Cc1ccc(-c2ccc(-n3nnc(C(=O)Nc4ccncc4)c3C3CC3)cc2)cc1 [Compound 7-210] | 1000 to 3000 |
| O=C(Nc1ccncc1)c1nnn(-c2ccc(-c3cc(CO)[nH]n3)cc2)c1C1CC1 [Compound 7-211] | 1000 to 3000 |
| O=C(O)c1cccc(-c2ccc(-n3nnc(C(=O)Nc4ccncc4)c3C3CC3)cc2)c1 [Compound 7-213] | > 3000 |
| CC(C)c1ccc(-c2ccc(-n3nnc(C(=O)Nc4ccncc4)c3C3CC3)cc2)cc1 [Compound 7-214] | > 3000 |
| N#Cc1cnn(-c2ccccc2)c1-c1ccc(-n2nnc(C(=O)Nc3ccncc3)c2C2CC2)cc1 [Compound 7-216] | > 3000 |
| Cn1cc(-c2ccc(-n3nnc(C(=O)Nc4ccncc4)c3C3CC3)cc2)c(C2CC2)n1 [Compound 7-218] | > 3000 |
| Cc1ccc(C2(NC(=O)c3nnn(-c4ccc(-c5ccc(C#N)cc5)cc4F)c3C3CC3)CC2)cn1 [Compound 7-227] | 100 to 500 |
| CC(=O)c1ccc(-c2cccc(-n3nnc(C(=O)Nc4ccncc4)c3C3CC3)c2)c(F)c1 [Compound 7-229] | 100 to 500 |
| Cc1cc(-c2ccc(C#N)cc2)ccc1-n1nnc(C(=O)Nc2ccncc2)c1C1CC1 [Compound 7-230] | 100 to 500 |
| CC(=O)c1ccc(-c2ccc(-n3nnc(C(=O)Nc4ccncc4)c3C3CC3)c(C)c2)cc1 [Compound 7-231] | 100 to 500 |
| CC(=O)c1cccc(-c2cccc(-n3nnc(C(=O)Nc4ccncc4)c3C3CC3)c2)c1 [Compound 7-237] | 100 to 500 |
| CC(=O)c1ccc(-c2ccc(-n3nnc(C(=O)Nc4ccncc4)c3C3CC3)cc2C)cc1 [Compound 7-238] | 100 to 500 |

The next lines start with the values.

| IC50 [nM] | Compound |
| --- | --- |
| 1000 to 3000 | CCn1cc(-c2ccc(-n3nnc(C(=O)Nc4ccncc4)c3C3CC3)cc2)c(C)n1 [Compound 7-189] |
| 1000 to 3000 | Cc1cc(-c2ccc(-n3nnc(C(=O)Nc4ccncc4)c3C3CC3)cc2)sn1 [Compound 7-191] |
| 1000 to 3000 | Cc1cc(-c2ccc(-n3nnc(C(=O)Nc4ccncc4)c3C3CC3)cc2)on1 [Compound 7-198] |
| 1000 to 3000 | Cc1cc(NC(=O)c2nnn(-c3ccc(-c4ccccc4)c(F)c3)c2C2CC2)ccn1 [Compound 7-205] |
| 1000 to 3000 | Cc1nn(C)c(C)c1-c1ccc(-n2nnc(C(=O)NCc3nc4ccccc4n3C)c2C2CC2)cc1 [Compound 7-209] |
| 1000 to 3000 | CC(C)Cn1nc(C(F)(F)F)cc1-c1ccc(-n2nnc(C(=O)Nc3ccncc3)c2C2CC2)cc1 [Compound 7-212] |
| > 3000 | Cn1nc(-c2ccc(-n3nnc(C(=O)Nc4ccncc4)c3C3CC3)cc2)cc1N [Compound 7-215] |
| > 3000 | Cn1cc(-c2ccc(-n3nnc(C(=O)Nc4ccncc4)c3C3CC3)cc2)c(C(F)(F)F)n1 [Compound 7-217] |
| < 100 | CCn1nc(C)c(-c2ccc(-n3nnc(C(=O)Nc4ccnc(C)c4)c3C3CC3)c(F)c2)c1C [Compound 7-219] |
| < 100 | Cc1cc(NC(=O)c2nnn(-c3ccc(-c4c(C)nn(C)c4C)cc3F)c2C2CC2)ccn1 [Compound 7-220] |
| < 100 | Cc1nn(C)c(C)c1-c1ccc(-n2nnc(C(=O)Nc3ccncc3)c2C2CC2)c(F)c1 [Compound 7-221] |
| < 100 | Cc1cc(NC(=O)c2nnn(-c3ccc(-c4c(C)nn(CC(F)(F)F)c4C)cc3F)c2C2CC2)ccn1 [Compound 7-222] |
| < 100 | Cc1cc(NC(=O)c2nnn(-c3ccc(-c4c(C)nn(-c5ccccc5)c4C)cc3F)c2C2CC2)ccn1 [Compound 7-223] |
| < 100 | Cc1cc(NC(=O)c2nnn(-c3ccc(-c4c(C)nn(C)c4F)cc3F)c2C2CC2)ccn1 [Compound 7-224] |
| < 100 | Cc1ccc(C2(NC(=O)c3nnn(-c4ccc(-c5c(C)nn(-c6ccccc6)c5C)cc4F)c3C3CC3)CC2)cn1 [Compound 7-225] |
| 100 to 500 | COc1cc(-c2c(C)nn(C)c2C)ccc1-n1nnc(C(=O)Nc2ccncc2)c1C1CC1 [Compound 7-226] |
| 100 to 500 | COc1cc(-c2ccc(C#N)cc2)ccc1-n1nnc(C(=O)Nc2ccnc(C)c2)c1C1CC1 [Compound 7-228] |
| 100 to 500 | Cc1nn(C)c(C)c1-c1ccc(-n2nnc(C(=O)Nc3ccncc3)c2C2CC2)cn1 [Compound 7-232] |
| 100 to 500 | Cc1cc(NC(=O)c2nnn(-c3cccc(-c4ccn(C5CC5)n4)c3)c2C2CC2)ccn1 [Compound 7-233] |
| 100 to 500 | Cc1nn(C)c(C)c1-c1ccc(-n2nnc(C(=O)Nc3ccncc3)c2C2CC2)cc1F [Compound 7-234] |
| 100 to 500 | Cc1cc(NC(=O)c2nnn(-c3ccc(-c4ccc(C#N)cc4)c(F)c3)c2C2CC2)ccn1 [Compound 7-235] |
| 100 to 500 | Cc1cc(NC(=O)c2nnn(-c3cccc(-c4ccn(C5CCCC5)n4)c3)c2C2CC2)ccn1 [Compound 7-236] |
| 100 to 500 | Cc1nn(C)c(C)c1-c1ccc(-n2nnc(C(=O)Nc3ccncc3)c2C2CC2)c(OC(F)(F)F)c1 [Compound 7-239] |
